Patent publication US20240101544A1, “INHIBITORS OF QPCTL AND QPCT” (priority 2022, published 2024)

Assays:
[1] = molecular target: T1, QPCTL (Homo sapiens (Human), UniProt Q9NXS2); assay: QPCTL Enzymatic Activity Assay (coupled-enzyme fluorescent assay, H-Gln-AMC substrate); type: biochemical; details: recombinant truncated human QPCTL 10-12 nM, 10 μM H-Gln-AMC; read-out: QPCTL Inhibition IC50
Target sequence in this assay (Q9NXS2 53-382): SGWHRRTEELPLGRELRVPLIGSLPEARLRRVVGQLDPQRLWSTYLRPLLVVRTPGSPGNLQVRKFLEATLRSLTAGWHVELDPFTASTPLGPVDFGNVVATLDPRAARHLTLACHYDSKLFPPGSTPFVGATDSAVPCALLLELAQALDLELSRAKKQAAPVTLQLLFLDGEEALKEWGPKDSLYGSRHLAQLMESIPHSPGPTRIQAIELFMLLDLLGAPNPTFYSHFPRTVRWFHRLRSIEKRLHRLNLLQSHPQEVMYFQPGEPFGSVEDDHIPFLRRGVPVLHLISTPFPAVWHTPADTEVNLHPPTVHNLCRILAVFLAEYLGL

[2] = molecular target: QPCT (rhQPCT) (Homo sapiens (Human), UniProt Q16769); assay: QPCT Enzymatic Activity Assay (coupled-enzyme fluorescent assay, H-Gln-AMC substrate); type: biochemical; details: rhQPCT 10-12 nM, 10 μM H-Gln-AMC; read-out: QPCT Inhibition IC50
Sequence of QPCT (rhQPCT) (Q16769 29-361): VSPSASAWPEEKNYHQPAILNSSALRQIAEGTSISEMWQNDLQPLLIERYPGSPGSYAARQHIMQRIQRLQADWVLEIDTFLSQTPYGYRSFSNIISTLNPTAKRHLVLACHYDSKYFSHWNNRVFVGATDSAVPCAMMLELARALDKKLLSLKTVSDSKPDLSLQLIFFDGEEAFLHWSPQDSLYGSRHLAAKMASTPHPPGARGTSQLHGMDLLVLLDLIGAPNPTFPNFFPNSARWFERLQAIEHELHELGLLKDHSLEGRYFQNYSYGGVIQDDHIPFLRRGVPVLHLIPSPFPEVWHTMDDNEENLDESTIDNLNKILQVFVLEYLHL
Method in brief: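 Coupled assay: recombinant human QPCT converts H-Gln-AMC (10 μM final) to pyroglutamyl-AMC, 60 min at 37 °C, stopped by boiling; PGPEP-1 then releases AMC.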

[3] = molecular target: T1, QPCTL; assay: Inhibition of Cellular QPCTL Activity - FACS flow cytometry, CC2C6 anti-CD47 staining of Ramos cells; type: cell-based; details: Ramos human Burkitts Lymphoma cells, 72-96 hours, % CC2C6-positive cells
Protocol: Inhibition of Cellular QPCTL Activity—Fluorescence-Activated Cell Sorting (FACS) Flow Cytometry
The cells were incubated for 72-96 hours at 37° C. and 5% CO2. At the end of incubation period, cells were transferred to tubes and spun down at 1200 rpm for 5 minutes. […] After antibody staining, the cells were washed with FACS buffer then stained with SYTOX™ Blue dead cell stain at a dilution of 1:1000. Cells were analyzed on a BD FACS Melody and a positive staining gate on live cells was set using the 0.1% DMSO controls. […] Flow cytometry data were analyzed by FlowJo software and concentration-response-curves and IC50 values were generated using Collaborative Drug Discovery software.
Target sequence in this assay (Q9NXS2 whole entry, the tested form may be a part): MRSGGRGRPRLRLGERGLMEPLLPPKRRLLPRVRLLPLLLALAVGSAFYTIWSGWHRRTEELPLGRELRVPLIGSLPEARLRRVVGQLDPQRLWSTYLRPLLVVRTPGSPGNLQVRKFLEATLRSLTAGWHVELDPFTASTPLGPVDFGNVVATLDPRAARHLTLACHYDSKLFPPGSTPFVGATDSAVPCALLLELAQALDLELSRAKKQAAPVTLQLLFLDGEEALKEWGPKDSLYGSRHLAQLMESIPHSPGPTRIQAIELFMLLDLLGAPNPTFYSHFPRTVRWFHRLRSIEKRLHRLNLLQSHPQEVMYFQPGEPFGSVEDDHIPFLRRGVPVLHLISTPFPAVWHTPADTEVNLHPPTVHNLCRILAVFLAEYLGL

[4] = molecular target: T1, QPCTL; assay: Inhibition of Cellular QPCTL Activity - Imaging Assay, CC2C6 anti-CD47 staining of DLD-1 cells; type: cell-based; details: 72 hours, CC2C6 anti-CD47 high-content imaging
Protocol: Inhibition of Cellular QPCTL Activity—Imaging Assay
The cells were incubated for 72 hours at 37° C. and 5% CO2. […] After primary antibody staining, the cells were fixed with 4% paraformaldehyde in the incubation buffer for 15 minutes at room temperature. […] Cells were analyzed on a ImageXpress Pico Automated Cell Imaging System (Molecular Devices) using 10× objective (3×3 fields).
Target sequence in this assay (Q9NXS2 whole entry, the tested form may be a part): as above

`Cn1cc2c(-c3cccc(C#N)c3N3CCC(c4nncn4C)CC3)cncc2n1` [Example 16, 3-{2-methyl-2H-pyrazolo[3,4-c]pyridin-4-yl}-2-[4-(4-methyl-4H-1,2,4-triazol-3-yl)piperidin-1-yl]benzonitrile] gave an IC50 [1] of less than 0.1 µM, an IC50 [2] of less than 0.1 µM and an IC50 [3] of 0.1 to 1 µM.
`Cn1cc(-c2ccc(-c3ccnnc3)c(N3CCC(c4nncn4C)CC3)c2C#N)cn1` [Example 36, 6-(1-methyl-1H-pyrazol-4-yl)-2-[4-(4-methyl-4H-1,2,4-triazol-3-yl)piperidin-1-yl]-3-(pyridazin-4-yl)benzonitrile] gave an IC50 [1] of less than 0.1 µM, an IC50 [2] of less than 0.1 µM and an IC50 [3] of less than 0.1 µM.
Work on `COc1ccncc1-c1cccc(C#N)c1N1CCC(c2nncn2C)CC1` [Example 3, 3-(4-methoxypyridin-3-yl)-2-[4-(4-methyl-4H-1,2,4-triazol-3-yl)piperidin-1-yl]benzonitrile] yielded an IC50 [1] of less than 0.1 µM, an IC50 [2] of less than 0.1 µM and an IC50 [3] of 0.1 to 1 µM.
In the case of `CN(C)CCOc1ccc(-c2ccc(F)nc2)c(N2CCC(c3nncn3C)CC2)c1C#N` [Example 37, 6-[2-(dimethylamino)ethoxy]-3-(6-fluoropyridin-3-yl)-2-[4-(4-methyl-4H-1,2,4-triazol-3-yl)piperidin-1-yl]benzonitrile], the IC50 [1] is reported as less than 0.1 µM, the IC50 [2] is reported as less than 0.1 µM and the IC50 [3] is reported as less than 0.1 µM.
`Cn1cnnc1C1CCN(c2c(-c3ccc(F)nc3)ccc(-c3ccccc3)c2C#N)CC1` [Example 28, 4-(6-fluoropyridin-3-yl)-3-[4-(4-methyl-4H-1,2,4-triazol-3-yl)piperidin-1-yl]-[1,1′-biphenyl]-2-carbonitrile] gave an IC50 [1] of less than 0.1 µM, an IC50 [2] of less than 0.1 µM and an IC50 [3] of less than 0.1 µM.
`Cn1cnnc1C1CCN(c2c(C#N)cccc2-c2ccnnc2)CC1` [Example 11, 2-[4-(4-methyl-4H-1,2,4-triazol-3-yl)piperidin-1-yl]-3-(pyridazin-4-yl)benzonitrile] was tested, and the IC50 [1] was less than 0.1 µM, the IC50 [2] was less than 0.1 µM and the IC50 [3] was less than 0.1 µM.
Compound `Cn1cnnc1C1CCN(c2c(C#N)cccc2-c2ccc3ocnc3c2)CC1` [Example 15, 3-(1,3-benzoxazol-5-yl)-2-[4-(4-methyl-4H-1,2,4-triazol-3-yl)piperidin-1-yl]benzonitrile] has an IC50 [1] of 0.1 to 1 µM, an IC50 [2] of less than 0.1 µM and an IC50 [3] of 1 to 10 µM.
`Cn1cnnc1C1CCN(c2c(C#N)cccc2-c2cnc(=O)n(C)c2)CC1` [Example 34, 3-(1-methyl-2-oxo-1,2-dihydropyrimidin-5-yl)-2-[4-(4-methyl-4H-1,2,4-triazol-3-yl)piperidin-1-yl]benzonitrile] was tested, and the IC50 [1] was less than 0.1 µM, the IC50 [2] was less than 0.1 µM and the IC50 [3] was 1 to 10 µM. The IC50 [4] was 0.1 to 1 µM.
`COc1ccc(-c2ccnnc2)c(N2CCC(c3nncn3C)CC2)c1C#N` [Example 26, 6-methoxy-2-[4-(4-methyl-4H-1,2,4-triazol-3-yl)piperidin-1-yl]-3-(pyridazin-4-yl)benzonitrile] was tested, and the IC50 [1] was less than 0.1 µM, the IC50 [2] was less than 0.1 µM and the IC50 [3] was less than 0.1 µM.
`COc1ccc(-c2ccc(F)nc2)c(N2CCC(c3nncn3C)CC2)c1C#N` [Example 24, 3-(6-fluoropyridin-3-yl)-6-methoxy-2-[4-(4-methyl-4H-1,2,4-triazol-3-yl)piperidin-1-yl]benzonitrile] showed an IC50 [1] of less than 0.1 µM, an IC50 [2] of less than 0.1 µM and an IC50 [3] of less than 0.1 µM. For the same compound, the IC50 [4] was less than 0.1 µM.
`Cn1cnnc1C1CCN(c2c(C#N)cccc2-c2ccc3nonc3c2)CC1` [Example 19, 3-(2,1,3-benzoxadiazol-5-yl)-2-[4-(4-methyl-4H-1,2,4-triazol-3-yl)piperidin-1-yl]benzonitrile] was tested, and the IC50 [1] was 0.1 to 1 µM, the IC50 [2] was less than 0.1 µM and the IC50 [3] was 1 to 10 µM.
`Cn1cnnc1C1CCN(c2c(C#N)cccc2-c2cncc3c2cnn3C)CC1` [Example 4, 3-{1-methyl-1H-pyrazolo[3,4-c]pyridin-4-yl}-2-[4-(4-methyl-4H-1,2,4-triazol-3-yl)piperidin-1-yl]benzonitrile] was tested, and the IC50 [1] was 0.1 to 1 µM, the IC50 [2] was 0.1 to 1 µM and the IC50 [3] was 1 to 10 µM.
Compound `Cn1cnnc1C1CCN(c2c(C#N)cccc2-c2cnccc2OCCO)CC1` [Example 9, 3-[4-(2-hydroxyethoxy)pyridin-3-yl]-2-[4-(4-methyl-4H-1,2,4-triazol-3-yl)piperidin-1-yl]benzonitrile] has an IC50 [1] of less than 0.1 µM, an IC50 [2] of less than 0.1 µM and an IC50 [3] of 1 to 10 µM.
Work on `Cn1cnnc1C1CCN(c2c(C#N)cccc2-c2cnccc2Cl)CC1` [Example 10, 3-(4-chloropyridin-3-yl)-2-[4-(4-methyl-4H-1,2,4-triazol-3-yl)piperidin-1-yl]benzonitrile] yielded an IC50 [1] of less than 0.1 µM, an IC50 [2] of less than 0.1 µM and an IC50 [3] of 0.1 to 1 µM.
With `Cn1cnnc1C1CCN(c2c(C#N)cccc2-c2cncc3c2ccn3C)CC1` [Example 12, 3-{1-methyl-1H-pyrrolo[2,3-c]pyridin-4-yl}-2-[4-(4-methyl-4H-1,2,4-triazol-3-yl)piperidin-1-yl]benzonitrile] the IC50 [1] was less than 0.1 µM, the IC50 [2] was less than 0.1 µM and the IC50 [3] was 1 to 10 µM.
For `Cn1cnnc1C1CCN(c2c(-c3ccnnc3)ccc(Cl)c2C#N)CC1` [Example 33, 6-chloro-2-[4-(4-methyl-4H-1,2,4-triazol-3-yl)piperidin-1-yl]-3-(pyridazin-4-yl)benzonitrile], the IC50 [1] was less than 0.1 µM, the IC50 [2] was less than 0.1 µM and the IC50 [3] was less than 0.1 µM.
Work on `Cn1cnnc1C1CCN(c2c(-c3ccc(F)nc3)ccc(Cl)c2C#N)CC1` [Example 30, 6-chloro-3-(6-fluoropyridin-3-yl)-2-[4-(4-methyl-4H-1,2,4-triazol-3-yl)piperidin-1-yl]benzonitrile] yielded an IC50 [1] of less than 0.1 µM, an IC50 [2] of less than 0.1 µM and an IC50 [3] of less than 0.1 µM.
`CN(C)CCOc1ccncc1-c1cccc(C#N)c1N1CCC(c2nncn2C)CC1` [Example 8, 3-{4-[2-(dimethylamino)ethoxy]pyridin-3-yl}-2-[4-(4-methyl-4H-1,2,4-triazol-3-yl)piperidin-1-yl]benzonitrile] gave an IC50 [1] of less than 0.1 µM, an IC50 [2] of less than 0.1 µM and an IC50 [3] of 1 to 10 µM.
With `Cn1cnnc1C1CCN(c2c(C#N)ccc(F)c2-c2ccnnc2)CC1` [Example 39, 4-fluoro-2-[4-(4-methyl-4H-1,2,4-triazol-3-yl)piperidin-1-yl]-3-(pyridazin-4-yl)benzonitrile] the IC50 [1] was less than 0.1 µM, the IC50 [2] was less than 0.1 µM and the IC50 [3] was 0.1 to 1 µM.
Compound `Cn1cnnc1C1CCN(c2c(C#N)cccc2-c2ccc(OCCO)nc2)CC1` [Example 6, 3-[6-(2-hydroxyethoxy)pyridin-3-yl]-2-[4-(4-methyl-4H-1,2,4-triazol-3-yl)piperidin-1-yl]benzonitrile] has an IC50 [1] of less than 0.1 µM, an IC50 [2] of less than 0.1 µM and an IC50 [3] of 1 to 10 µM.
`Cn1cnnc1C1CCN(c2c(C#N)cccc2-c2cccnc2)CC1` [Example 2, 2-[4-(4-methyl-4H-1,2,4-triazol-3-yl)piperidin-1-yl]-3-(pyridin-3-yl)benzonitrile] showed an IC50 [1] of less than 0.1 µM, an IC50 [2] of less than 0.1 µM and an IC50 [3] of 0.1 to 1 µM.
In the case of `Cn1ccc(-c2ccc(-c3ccc(O)c(C=O)c3)c(N3CCC(c4nncn4C)CC3)c2C#N)n1` [Example 124, 3′-formyl-4′-hydroxy-4-(1-methyl-1H-pyrazol-3-yl)-2-(4-(4-methyl-4H-1,2,4-triazol-3-yl)piperidin-1-yl)-[1,1′-biphenyl]-3-carbonitrile], the IC50 [1] is reported as less than 0.1 µM, the IC50 [2] is reported as less than 0.1 µM and the IC50 [4] is reported as 0.1 to 1 µM.
`CN1CCC(Oc2ccc(-c3ccc(F)nc3)c(N3CCC(c4nncn4C)CC3)c2C#N)C1` (single isomer, unassigned) [Example 90, 3-(6-fluoropyridin-3-yl)-2-(4-(4-methyl-4H-1,2,4-triazol-3-yl)piperidin-1-yl)-6-((1-methylpyrrolidin-3-yl)oxy)benzonitrile] showed an IC50 [1] of less than 0.1 µM, an IC50 [2] of less than 0.1 µM and an IC50 [4] of less than 0.1 µM.
`CN1CCN(c2ccc(-c3ccc(F)nc3)c(N3CCC(c4nncn4C)CC3)c2C#N)CC1` [Example 80, 3-(6-fluoropyridin-3-yl)-2-(4-(4-methyl-4H-1,2,4-triazol-3-yl)piperidin-1-yl)-6-(4-methylpiperazin-1-yl)benzonitrile] showed an IC50 [1] of less than 0.1 µM, an IC50 [2] of less than 0.1 µM and an IC50 [4] of less than 0.1 µM.
`Cc1ccc(-c2ccc(F)nc2)c(N2CCC(c3nncn3C)CC2)c1C#N` [Example 67, 3-(6-fluoropyridin-3-yl)-6-methyl-2-(4-(4-methyl-4H-1,2,4-triazol-3-yl)piperidin-1-yl)benzonitrile] was tested, and the IC50 [1] was less than 0.1 µM, the IC50 [2] was less than 0.1 µM and the IC50 [4] was less than 0.1 µM.
With `COc1ccncc1-c1ccc(Cl)c(C#N)c1N1CCC(c2nncn2C)CC1` [Example 27, 6-chloro-3-(4-methoxypyridin-3-yl)-2-[4-(4-methyl-4H-1,2,4-triazol-3-yl)piperidin-1-yl]benzonitrile] the IC50 [1] was less than 0.1 µM, the IC50 [2] was less than 0.1 µM and the IC50 [3] was 0.1 to 1 µM.
With `Cn1cnnc1C1CCN(c2c(C#N)cc(C(F)(F)F)cc2-c2ccc(F)nc2)CC1` [Example 70, 3-(6-fluoropyridin-3-yl)-2-(4-(4-methyl-4H-1,2,4-triazol-3-yl)piperidin-1-yl)-5-(trifluoromethyl)benzonitrile] the IC50 [1] was less than 0.1 µM, the IC50 [2] was less than 0.1 µM and the IC50 [4] was less than 0.1 µM.
